Experimental data taken from patent publication US10828301B2, “2,4-pyrimidinediamine compounds and their uses” (Rigel Pharmaceuticals, Inc, priority 2002, dated 2020).

Key:
[1] = system: cultured human mast cells (CHMC); test: CHMC low cell density IgE activation: tryptase and LTC4 assays; format: cell-based; conditions: Low Density CHMC, anti-IgE activation, tryptase readout, read-out: CHMC anti-IgE Tryptase
Method in brief: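 Cultured human mast cells at low density (1000-1500 per well) rested 1 h at 37° C, then stimulated with anti-IgE for 30 min at 37° C. Supernatant tryptase measured with fluorogenic substrate (30 min, room temperature); LTC4 quantified by ELISA on diluted supernatant.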

[2] = system: cultured human mast cells (CHMC); test: CHMC low cell density ionomycin activation: tryptase assay; format: cell-based; conditions: Low Density CHMC, ionomycin activation, tryptase readout, read-out: CHMC Ionomycin Tryptase

SMILES	IC50 ([1]; Homo sapiens, Mast cell) [nM]	IC50 ([2]; Homo sapiens, Mast cell) [µM]	IC50 [1] [nM]	IC50 [2] [µM]
CNC(=O)C1Cc2cc(Nc3ncc(F)c(Nc4ccc(F)c(F)c4)n3)ccc2O1 (racemic) [Compound R927035, (±)-N4-(3,4-Difluorophenyl)-5-fluoro-N2-[2,3-dihydro-2-(N-methylamino)carbonylbenzofuran-5-yl]-2,4-pyrimidinediamine]	583	> 10		
Fc1cnc(NCc2ccc3c(c2)CCO3)nc1Nc1ccc2c(c1)OCCO2 [Compound R950205, N2-[2,3-Dihydrobenzo[b]furan-5-ylmethyl]-N4-(3,4-ethylenedioxyphenyl)-5-fluoro-2,4-pyrimidinediamine]	9000	> 10		
Oc1cccc(Nc2ncc(-c3ccccc3)c(Nc3cccc(O)c3)n2)c1 [Compound R925783, N2,N4-Bis(3-hydroxyphenyl)-5-phenyl-2,4-pyrimidinediamine]	2900	> 10		
CC(C)(C)c1ccc(Nc2nc(Nc3ccc4oc(C(=O)O)cc4c3)ncc2F)cc1 [Compound R926481, N4-(4-tert-Butylphenyl)-N2-(2-carboxybenzofuran-5-yl)-5-fluoro-2,4-pyrimidinediamine]	1440	> 10		
CCOC(=O)Nc1ccc(Nc2ncc(F)c(Nc3ccc(NC(=O)OCC)c(O)c3)n2)cc1O [Compound R926340, N2,N4-Bis(4-ethoxycarbonylamino-3-hydroxyphenyl)-5-fluoro-2,4-pyrimidinediamine]	3230	> 10		
O=S(=O)(c1ccc(Nc2ncc(F)c(Nc3ccc4c(c3)OCCO4)n2)cc1)N1CCCC1 [Compound R926716, N4-(3,4-Ethylenedioxyphenyl)-5-fluoro-N2-[4-(tetrahydro-(1H)-pyrrol-1-ylsulfonyl)phenyl]-2,4-pyrimidinediamine]	1060	> 10		
Oc1cccc(Nc2nc(NCCN3CCN(Cc4ccccc4)CC3)ncc2F)c1 [Compound R940261, N2-[2-(N-Benzylpiperazino)ethyl]-5-fluoro-N4-(3-hydroxyphenyl)-2,4-pyrimidinediamine]	> 10000	> 10		
CNC(=O)c1cc(Nc2nc(NC)ncc2F)ccc1OC [Compound R940304, 5-Fluoro-N4-(3-methylaminocarbonyl-4-methoxyphenyl)-N2-methyl-2,4-pyrimidinediamine]	> 10000	> 10		
COC(=O)c1cc(N)cc(Nc2ncc(F)c(Nc3cc(N)cc(C(=O)OC)c3)n2)c1 [Compound R950134, N2,N4-Bis(3-amino-5-methoxycarbonylphenyl)-5-fluoro-2,4-pyrimidinediamine]	1880	> 10		
Fc1cnc(Nc2cccc(OCc3ccccc3)c2)nc1Nc1cccc(OCc2ccccc2)c1 [Compound R926394, N2,N4-Bis(3-benzyloxyphenyl)-5-fluoro-2,4-pyrimidinediamine]	> 10000	> 10		
Oc1cccc(Nc2nc(Nc3cc(Cl)c(O)c(Cl)c3)ncc2F)c1 [Compound R926890, 5-Fluoro-N2-(3,5-dichloro-4-hydroxyphenyl)-N4-(3-hydroxyphenyl)-2,4-pyrimidinediamine]	361	> 10		
CC(C)(C)OC(=O)Nc1ccc(Nc2ncc(F)c(Nc3ccc(NC(=O)OC(C)(C)C)cc3)n2)cc1 [Compound R950120, N2,N4-Bis[4-(tert-butoxycarbonylamino)phenyl]-5-fluoro-2,4-pyrimidinediamine]	3000	> 10		
Nc1nc(N(c2ccc(CO)cc2)c2ccc3c(c2)OCCO3)ncc1F [Compound R925760, N2-(3,4-Ethylenedioxyphenyl)-5-fluoro-N2-[4-(hydroxymethyl)phenyl]-2,4-pyrimidinediamine]	4850	> 10		
Cc1cc(Nc2ncc(F)c(Nc3cccc(C(C)(C)C)c3)n2)cc(Cl)c1O [Compound R940271, N4-(3-tert-Butylphenyl)-N2-(3-chloro-4-hydroxy-5-methylphenyl)-5-fluoro-2,4-pyrimidinediamine]	401	6.82		
Oc1cccc(Nc2cc(Nc3cccc(O)c3)nc(Nc3cccc(O)c3)n2)c1 [Compound R926409, N2,N4,N6-Tris(3-hydroxyphenyl)-2,4,6-pyrimidinetriamine]	3150	> 10		
COC(=O)C1Cc2cc(Nc3ncc(F)c(Nc4ccc(OC)c(Cl)c4)n3)ccc2O1 (stereo not shown) [Compound R926951, N4-(3-Chloro-4-methoxyphenyl)-5-fluoro-N2-[2,3-dihydro-2-(methoxycarbonyl)benzofuran-5-yl]-2,4-pyrimidinediamine]	183	> 10		
CCOc1ccc(Nc2ncc(F)c(Nc3ccc(OCC)c(N)c3)n2)cc1N [Compound R950139, N2,N4-Bis(3-amino-4-ethoxyphenyl)-5-fluoro-2,4-pyrimidinediamine]	1380	> 10		
CC(C)(C)c1cccc(Nc2ncc(F)c(Nc3cccc(O)c3)n2)c1 [Compound R940257, N2-(3-tert-Butylphenyl)-5-fluoro-N4-(3-hydroxyphenyl)-2,4-pyrimidinediamine]	667	> 10		

SMILES	IC50 ([1]; Homo sapiens, Mast cell) [nM]	IC50 ([2]; Homo sapiens, Mast cell) [µM]	IC50 [1] [nM]	IC50 [2] [µM]
CNC(=O)COc1cccc(Nc2ncc(F)c(Nc3ccc(OCCO)nc3)n2)c1 [Compound R927023, 5-Fluoro-N4-[2-(2-hydroxyethyleneoxy)pyridin-5-yl]-N2-[3-(N-methylamino)carbonylmethyleneoxyphenyl]-2,4-pyrimidinediamine]			918	> 10
NC(=O)C=Nc1cccc(Nc2ncc(F)c(Nc3cccc(O)c3)n2)c1 [Compound R950219, N2-(3-Aminocarbonylmethyleneaminophenyl)-5-fluoro-N4-(3-hydroxyphenyl)-2,4-pyrimidinediamine]	439	> 10		
Oc1cccc(Nc2nc(Nc3ccc(OCc4nnn[nH]4)cc3)ncc2C(F)(F)F)c1 [Compound R920846]			> 10000	> 10
Oc1cccc(Nc2nc(NCc3ccc4c(c3)CCO4)ncc2F)c1 [Compound R950213, N2-[2,3-Dihydrobenzo[b]furan-5-ylmethyl]-5-fluoro-N4-(3-hydroxyphenyl)-2,4-pyrimidinediamine]	> 10000	> 10		
CCOC(=O)CNc1nc(NCC(=O)OCC)c(N)c(C(=O)OCC)n1 [Compound R925865, 5-Amino-N2,N4-bis(ethoxycarbonylmethyl)-6-ethoxycarbonyl-2,4-pyrimidinediamine]	> 10000	> 10		
COC(=O)Cc1ccc(Nc2ncc(F)c(Nc3ccc(CC(=O)OC)cc3)n2)cc1 [Compound R926605, N2,N4-Bis[4-(methoxycarbonylmethyl)phenyl]-5-fluoro-2,4-pyrimidinediamine]	2450	> 10		
O=[N+]([O-])c1cnc(Nc2ccc3c(c2)OC(F)(F)O3)nc1Nc1ccc2c(c1)OC(F)(F)O2 [Compound R940100, N2,N4-Bis-(2,2-difluoro-1,3-benzodioxol-5-yl)-5-nitro-2,4-pyrimidinediamine]	> 10000	> 10		
CCOC(=O)c1cc2cc(Nc3ncc(F)c(Nc4ccc5[nH]c(C(=O)OCC)cc5c4)n3)ccc2[nH]1 [Compound R926616, N2,N4-Bis(2-ethoxycarbonylindol-5-yl)-5-fluoro-2,4-pyrimidinediamine]	625	3.25		
Fc1cnc(NCc2csc3ccccc23)nc1NCc1csc2ccccc12 [Compound R945145, N2,N4-Bis(benzothiophen-3-ylmethyl)-5-fluoro-2,4-pyrimidinediamine]	> 10000	> 10		
Oc1ccc(CCNc2ncc(Br)c(NCCc3ccc(O)cc3)n2)cc1 [Compound R925792, N2,N4-Bis[2-(4-hydroxyphenyl)ethyl]-5-bromo-2,4-pyrimidinediamine]	6250	> 10		
COc1cc(-c2ccccc2)c(C)cc1Nc1ncc(Br)c(Nc2cc(C)c(-c3ccccc3)cc2OC)n1 [Compound R925801, N2,N4-Bis(2-methoxy-5-methyl-4-phenylphenyl)-5-bromo-2,4-pyrimidinediamine]	> 10000	> 10		
Oc1cccc(Nc2ncc(F)c(Nc3ccc(Cl)cn3)n2)c1 [Compound R927020, N4-(5-Chloropyridin-2-yl)-5-fluoro-N2-(3-hydroxyphenyl)-2,4-pyrimidinediamine]	1320	> 10		
COC(=O)C1Cc2cc(Nc3ncc(F)c(Nc4ccc(Cl)cc4)n3)ccc2O1 (racemic) [Compound R927024, (±)-N4-(4-Chlorophenyl)-N2-(2,3-dihydro-2-methoxycarbonylbenzofuran-5-yl)-5-fluoro-2,4-pyrimidinediamine]	326	99		
Cn1nc(I)c2cc(Nc3ncc(F)c(Nc4ccc(I)c(O)c4I)n3)ccc21 [Compound R935221, N4-(2,4-Diiodo-3-hydroxypheny)-5-fluoro-N2-(3-iodo-1-methyl-indazoline-5-yl)-2,4-pyrimidinediamine]			> 10000	> 10
Oc1cccc(Nc2ncc(F)c(NCCSCc3c(F)cccc3Cl)n2)c1 [Compound R926724, N4-[2-[(2-Chloro-6-fluorobenzyl)thio]ethyl]-5-fluoro-N2-(3-hydroxyphenyl)-2,4-pyrimidinediamine]	2060	> 10		
N#Cc1cnc(Nc2ccc3c(c2)OCCO3)nc1Nc1ccc2c(c1)OCCO2 [Compound R925773, N2,N4-Bis(3,4-ethylenedioxyphenyl)-5-cyano-2,4-pyrimidinediamine]	673	> 10		
CC(C)(C)OC(=O)Nc1cccc(Nc2ncc(F)c(Nc3cccc(NC(=O)OC(C)(C)C)c3)n2)c1 [Compound R950108, N2,N4-Bis[3-(tert-butoxycarbonylamino)phenyl]-5-fluoro-2,4-pyrimidinediamine]	2080	> 10		
